Data as given in patent publication US12692254B2, “Benzimidazole inhibitors of PAD enzymes” (BRISTOL-MYERS SQUIBB COMPANY, priority 2018, dated 2026).

Biological target: human PAD4 (hPAD4) (Homo sapiens, UniProt Q9UM07)
Assay: RFMS human PAD4 functional assay (rapid-fire mass spectrum)
Format: biochemical
Details: 5 nM hPAD4 enzyme, 250 μM BAEE, 50 μM Calcium; 30 min preincubation, 90 min reaction at 37° C.
Method in brief: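 PAD4 (10 nM) preincubated 30 min with compound (top final 50 μM), then BAEE substrate added in pH 7.5 HEPES buffer with DTT, 50 μM calcium, TPEN; 90 min at 37° C. After TCA quench, citrulline derivatized with phenyl glyoxal (4 mM final, 30 min, 37° C) and quantified by RapidFire MS against internal standard.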

human PAD4 (hPAD4), sequence (Q9UM07 whole entry): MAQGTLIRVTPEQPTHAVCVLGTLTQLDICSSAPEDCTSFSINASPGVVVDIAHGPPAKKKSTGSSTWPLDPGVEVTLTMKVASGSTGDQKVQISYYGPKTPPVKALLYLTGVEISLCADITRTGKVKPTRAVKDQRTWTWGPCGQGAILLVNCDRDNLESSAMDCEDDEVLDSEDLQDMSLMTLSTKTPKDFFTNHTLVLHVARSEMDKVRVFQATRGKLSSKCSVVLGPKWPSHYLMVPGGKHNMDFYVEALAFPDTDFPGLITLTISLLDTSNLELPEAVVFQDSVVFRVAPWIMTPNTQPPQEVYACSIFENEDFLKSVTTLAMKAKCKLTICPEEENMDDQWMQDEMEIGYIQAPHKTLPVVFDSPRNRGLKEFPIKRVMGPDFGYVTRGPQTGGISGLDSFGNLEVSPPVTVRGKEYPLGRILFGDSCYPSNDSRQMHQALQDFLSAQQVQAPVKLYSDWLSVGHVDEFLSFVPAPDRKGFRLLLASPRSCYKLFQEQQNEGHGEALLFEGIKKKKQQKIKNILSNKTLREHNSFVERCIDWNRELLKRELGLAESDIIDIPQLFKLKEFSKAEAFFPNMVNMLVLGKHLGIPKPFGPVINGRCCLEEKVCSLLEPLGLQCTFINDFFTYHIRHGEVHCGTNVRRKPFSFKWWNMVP

Compound	IC50 [nM]
COc1cc(C(=O)N2C[C@H]3CC[C@@H]2[C@@H]3N)cc2nc(-c3cc4ccccc4n3C)n(CC3CNC3)c12 [Example 308, (1R,4R,7R)-2-{1-[(azetidin-3-yl)methyl]-7-methoxy-2-(1-methyl-1H-indol-2-yl)-1H-1,3-benzodiazole-5-carbonyl}-2-azabicyclo[2.2.1]heptan-7-amine]	538
COc1cc(C(=O)N2C[C@H]3CC[C@@H]2[C@@H]3N)cc2nc(-c3cc4cccnc4n3CC3CC3)n(CC3CN(c4ncc(C#N)cc4Br)C3)c12 [Example 29, 6-[3-({5-[(1R,4R,7R)-7-amino-2-azabicyclo[2.2.1]heptane-2-carbonyl]-2-[1-(cyclopropylmethyl)-1H-pyrrolo[2,3-b]pyridin-2-yl]-7-methoxy-1H-1,3-benzodiazol-1-yl}methyl)azetidin-1-yl]-5-bromopyridine-3-carbonitrile]	78
COc1cc(C(=O)N2C[C@H]3CC[C@@H]2[C@@H]3N)cc2nc(-c3cc4cccnc4n3CC3CC3)n(CC3CN(S(=O)(=O)c4ccc(Cl)nc4)C3)c12 [Example 334, (1R,4R,7R)-2-[1-({1-[(6-chloropyridin-3-yl)sulfonyl]azetidin-3-yl}methyl)-2-[1-(cyclopropylmethyl)-1H-pyrrolo[2,3-b]pyridin-2-yl]-7-methoxy-1H-1,3-benzodiazole-5-carbonyl]-2-azabicyclo[2.2.1]heptan-7-amine]	225
COc1cc(C(=O)N2C[C@H](N)C[C@@H](F)C2)cc2nc(-c3cc4cccnc4n3CC3CC3)n(CC3(C)CN(C(=O)c4ccccc4)C3)c12 [Example 469, (3R,5R)-1-{1-[(1-benzoyl-3-methylazetidin-3-yl)methyl]-2-[1-(cyclopropylmethyl)-1H-pyrrolo[2,3-b]pyridin-2-yl]-7-methoxy-1H-1,3-benzodiazole-5-carbonyl}-5-fluoropiperidin-3-amine]	129
COc1cc(C(=O)N2C[C@H]3CC[C@@H]2[C@@H]3N)cc2nc(-c3cc4cccnc4n3CC3CC3)n(C3CNC3)c12 [Example 307, (1R,4R,7R)-2-[1-(azetidin-3-yl)-2-[1-(cyclopropylmethyl)-1H-pyrrolo[2,3-b]pyridin-2-yl]-7-methoxy-1H-1,3-benzodiazole-5-carbonyl]-2-azabicyclo[2.2.1]heptan-7-amine]	297
COc1cc(C(=O)N2C[C@H](N)C[C@@H](F)C2)cc2nc(-c3cc4ccccc4n3CC3CC3)n(CC3CN(c4cncc(C#N)c4)C3)c12 [Example 34, 5-[3-({5-[(3R,5R)-3-amino-5-fluoropiperidine-1-carbonyl]-2-[1-(cyclopropylmethyl)-1H-indol-2-yl]-7-methoxy-1H-1,3-benzodiazol-1-yl}methyl)azetidin-1-yl]pyridine-3-carbonitrile]	88
COc1cc(C(=O)N2C[C@H]3CC[C@@H]2[C@@H]3N)cc2nc(-c3cc4cccnc4n3CC3CC3)n(C3CN(S(C)(=O)=O)C3)c12 [Example 330, (1R,4R,7R)-2-{2-[1-(cyclopropylmethyl)-1H-pyrrolo[2,3-b]pyridin-2-yl]-1-(1-methanesulfonylazetidin-3-yl)-7-methoxy-1H-1,3-benzodiazole-5-carbonyl}-2-azabicyclo[2.2.1]heptan-7-amine]	184
COc1cc(C(=O)N2CC3CCC2[C@@H]3N)cc2nc(-c3cccn3CC3CC3)n(CC3CN(c4cncc(C#N)c4)C3)c12 (some centres unmarked) [Example 317]	1190
COc1cc(C(=O)N2CC3CCC2[C@@H]3N)cc2nc(-c3cc4cccnc4n3CC3CC3)n(CC3CN(C(=O)[C@@H]4C[C@H]4C)C3)c12 (stereo partly drawn) [Example 128, (1R,4R,7R)-2-{2-[1-(cyclopropylmethyl)-1H-pyrrolo[2,3-b]pyridin-2-yl]-7-methoxy-1-({1-[(1R,2R)-2-methylcyclopropanecarbonyl]aze-tidin-3-yl}methyl)-1H-1,3-benzodiazole-5-carbonyl}-2-azabicyclo[2.2.1]heptan-7-amine]	109
COc1cc(C(=O)N2C[C@H]3CC[C@@H]2[C@@H]3N)cc2nc(-c3cc4cccnc4n3CC3CC3)n(C3CN(c4nccc(C(=O)O)n4)C3)c12 [Example 72, 2-(3-{5-[(1R,4R,7R)-7-amino-2-azabicyclo[2.2.1]heptane-2-carbonyl]-2-[1-(cyclopropylmethyl)-1H-pyrrolo[2,3-b]pyridin-2-yl]-7-methoxy-1H-1,3-benzodiazol-1-yl}azetidin-1-yl)pyrimidine-4-carboxylic acid]	113
COc1cc(C(=O)N2CC3CCC2[C@@H]3N)cc2nc(-c3cc4ccccc4n3CC(F)(F)F)n(Cc3cnn(C)c3)c12 (stereo partly drawn) [Example 495, (7R)-2-{7-methoxy-1-[(1-methyl-1H-pyrazol-4-yl)methyl]-2-[1-(2,2,2-trifluoroethyl)-1H-indol-2-yl]-1H-1,3-benzodiazole-5-carbonyl}-2-azabicyclo[2.2.1]heptan-7-amine]	88
CCS(=O)(=O)N1CC(n2c(-c3cc4cccnc4n3CC3CC3)nc3cc(C(=O)N4CC5CCC4[C@@H]5N)cc(OC)c32)C1 (stereo partly drawn) [Example 327, (1R,4R.,7R)-2-{2-[1-(cyclopropylmethyl)-1H-pyrrolo[2,3-b]pyridin-2-yl]-1-[1-(ethanesulfonyl)azetidin-3-yl]-7-methoy-1H-1,3-benzodiazole-5-carbonyl}-2-azabicyclo[2.2.1]heptan-7-amine]	57
COc1cc(C(=O)N2C[C@H](N)C[C@@H](F)C2)cc2nc(-c3cc4ccccc4n3CC3CC3)n(CC3CC3)c12 [Example 480, (3R,5R)-1-[1-(cyclopropylmethyl)-2-[1-(cyclopropylmethyl)-1H-indol-2-yl]-7-methoxy-1H-1,3-benzodiazole-5-carbonyl]-5-fluoropiperidin-3-amine]	301
COc1cc(C(=O)N2C[C@H]3CC[C@@H]2[C@@H]3N)cc2nc(-c3cc4cccnc4n3CC3CC3)n(C3CN(c4ccccc4)C3)c12 [Example 81, (1R,4R,7R)-2-{2-[1-(cyclopropylmethyl)-1H-pyrrolo[2,3-b]pyridin-2-yl]-7-methoxy-1-(1-phenylazetidin-3-yl)-1H-1,3-benzodiazole-5-carbonyl}-2-azabicyclo[2.2.1]heptan-7-amine]	403
COc1cc(C(=O)N2C[C@H](N)C[C@@H](F)C2)cc2nc(-c3cc4ccccc4n3CC3CC3)n(Cc3ccncc3)c12 [Example 287, (3R,5R)-1-{2-[1-(cyclopropylmethyl)-1H-indol-2-yl]-7-methoxy-1-[(pyridin-4-yl)methyl]-1H-1,3-benzodiazole-5-carbonyl}-5-fluoropiperidin-3-amine]	1230
COc1cc(C(=O)N2CC3CCC2[C@@H]3N)cc2nc(-c3cc4ccccc4n3CC3CC3)n(Cc3cn[nH]n3)c12 (stereo partly drawn) [Example 490, (7R)-2-{2-[1-(cyclopropylmethyl)-1H-indol-2-yl]-7-methoxy-1-[(2H-1,2,3-triazol-4-yl)methyl]-1H-1,3-benzodiazole-5-carbonyl}-2-azabicyclo[2.2.1]heptan-7-amine]	58
COc1cc(C(=O)N2C[C@H]3CC[C@@H]2[C@@H]3N)cc2nc(-c3cc4cc(Cl)ccc4n3C)n(CC3CN(c4cncc(C#N)n4)C3)c12 [Example 59, 6-[3-({5-[(1R,4R,7R)-7-amino-2-azabicyclo[2.2.1]heptane-2-carbonyl]-2-(5-chloro-1-methyl-1H-indol-2-yl)-7-methoxy-1H-1,3-benzodiazol-1-yl}methyl)azetidin-1-yl]pyrazine-2-carbonitrile]	171
